Target: T1, HpaC (Gc HpaC, FA1090 HpaC) (Neisseria gonorrhoeae, UniProt Q5FAG3)
T1 construct: gene NGO_0059; His6-tagged full-length HpaC from pET28a, expressed in E. coli BL21(DE3); 166 residues; co-purifies with FAD; oligomer not measured (modelled on TftC homodimer)
Assay: FAD released from purified protein by heat denaturation, coupled-enzyme fluorescent probe kit
Type: binding
Conditions: 0.5 µM protein, with and without 95 °C for 5 min; room temperature; co-purified FAD

T1 sequence (Q5FAG3 entry or part of it): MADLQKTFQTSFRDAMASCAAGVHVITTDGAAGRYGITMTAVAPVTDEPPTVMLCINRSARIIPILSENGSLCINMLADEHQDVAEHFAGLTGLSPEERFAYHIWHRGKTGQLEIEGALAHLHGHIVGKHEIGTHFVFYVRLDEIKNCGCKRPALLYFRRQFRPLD

Structure (SMILES): Cc1cc2nc3c(=O)[nH]c(=O)nc-3n(C[C@H](O)[C@H](O)[C@H](O)COP(=O)(O)OP(=O)(O)OC[C@H]3O[C@@H](n4cnc5c(N)ncnc54)[C@H](O)[C@@H]3O)c2cc1C [FAD]
- FAD released from purified protein by heat denaturation, coupled-enzyme fluoresc: We purified Gc HpaC and noticed an FAD signal in the absence of heat
